# Where two headings read alike, the source gives them in different places.
# What was measured:
# Assay type in all cases: binding
# [1] = biological target: T1, HeLa cell extract proteins (Homo sapiens, UniProt P04080)
# T1 construct: endogenous in cells; host or cells: HeLa cell extract
# T1 sequence (P04080 1-98): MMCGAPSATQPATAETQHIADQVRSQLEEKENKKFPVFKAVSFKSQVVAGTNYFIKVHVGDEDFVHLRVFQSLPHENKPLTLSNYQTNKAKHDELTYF
# [2] = biological target: T2, HeLa cell extract proteins (Homo sapiens, UniProt P05166)
# T2 construct: endogenous in cells; host or cells: HeLa cell extract
# T2 sequence (P05166 29-539): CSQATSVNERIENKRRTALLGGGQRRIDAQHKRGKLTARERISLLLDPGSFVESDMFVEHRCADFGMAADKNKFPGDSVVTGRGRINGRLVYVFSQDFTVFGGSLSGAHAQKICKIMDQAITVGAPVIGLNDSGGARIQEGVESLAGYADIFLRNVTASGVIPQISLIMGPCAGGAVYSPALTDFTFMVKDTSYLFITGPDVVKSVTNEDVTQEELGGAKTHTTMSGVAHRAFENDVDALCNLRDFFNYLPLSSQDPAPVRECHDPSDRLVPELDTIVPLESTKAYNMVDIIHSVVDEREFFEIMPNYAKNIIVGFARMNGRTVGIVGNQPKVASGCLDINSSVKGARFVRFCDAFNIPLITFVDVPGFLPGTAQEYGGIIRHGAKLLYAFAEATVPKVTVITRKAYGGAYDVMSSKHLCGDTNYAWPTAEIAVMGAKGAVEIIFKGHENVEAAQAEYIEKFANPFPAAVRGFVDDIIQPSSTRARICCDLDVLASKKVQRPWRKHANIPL
# [3] = biological target: T3, HeLa cell extract proteins (Homo sapiens, UniProt P11413)
# T3 construct: endogenous in cells; host or cells: HeLa cell extract
# [4] = biological target: T4, HeLa cell extract proteins (Homo sapiens, UniProt P34897)
# T4 construct: endogenous in cells; host or cells: HeLa cell extract
# T4 sequence (P34897 30-504): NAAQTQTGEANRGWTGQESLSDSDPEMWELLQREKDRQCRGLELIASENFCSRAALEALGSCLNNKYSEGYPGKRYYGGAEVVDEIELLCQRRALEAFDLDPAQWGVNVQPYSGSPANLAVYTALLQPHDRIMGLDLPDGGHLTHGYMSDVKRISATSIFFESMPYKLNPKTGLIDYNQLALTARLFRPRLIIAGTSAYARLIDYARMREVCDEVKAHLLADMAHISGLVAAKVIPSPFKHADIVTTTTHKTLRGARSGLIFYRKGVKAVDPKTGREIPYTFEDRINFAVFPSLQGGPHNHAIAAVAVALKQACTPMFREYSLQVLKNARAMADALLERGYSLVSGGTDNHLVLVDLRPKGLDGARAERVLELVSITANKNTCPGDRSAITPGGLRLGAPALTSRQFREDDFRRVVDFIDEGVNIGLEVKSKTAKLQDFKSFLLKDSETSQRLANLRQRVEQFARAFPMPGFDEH
# [5] = biological target: T5, HeLa cell extract proteins (Homo sapiens, UniProt P40926)
# T5 construct: endogenous in cells; host or cells: HeLa cell extract
# T5 sequence (P40926 25-338): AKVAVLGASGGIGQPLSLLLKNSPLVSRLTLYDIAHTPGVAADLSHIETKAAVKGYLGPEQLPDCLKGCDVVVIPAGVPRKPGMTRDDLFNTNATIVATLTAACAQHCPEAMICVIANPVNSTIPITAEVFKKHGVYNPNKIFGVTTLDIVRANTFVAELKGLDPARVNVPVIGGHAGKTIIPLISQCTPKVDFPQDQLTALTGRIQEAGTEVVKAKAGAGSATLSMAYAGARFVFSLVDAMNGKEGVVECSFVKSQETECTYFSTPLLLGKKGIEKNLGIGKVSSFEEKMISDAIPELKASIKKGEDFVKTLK
# [6] = biological target: T6, HeLa cell extract proteins (Homo sapiens, UniProt Q04837)
# T6 construct: endogenous in cells; host or cells: HeLa cell extract
# T6 sequence (Q04837 17-148): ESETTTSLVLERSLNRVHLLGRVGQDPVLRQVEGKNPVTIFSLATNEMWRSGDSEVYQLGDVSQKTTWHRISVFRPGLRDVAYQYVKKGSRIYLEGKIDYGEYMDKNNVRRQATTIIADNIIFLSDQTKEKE
# [7] = biological target: T7, HeLa cell extract proteins (Homo sapiens, UniProt Q96AG4)
# T7 construct: endogenous in cells; host or cells: HeLa cell extract
# T7 sequence (Q96AG4 1-307): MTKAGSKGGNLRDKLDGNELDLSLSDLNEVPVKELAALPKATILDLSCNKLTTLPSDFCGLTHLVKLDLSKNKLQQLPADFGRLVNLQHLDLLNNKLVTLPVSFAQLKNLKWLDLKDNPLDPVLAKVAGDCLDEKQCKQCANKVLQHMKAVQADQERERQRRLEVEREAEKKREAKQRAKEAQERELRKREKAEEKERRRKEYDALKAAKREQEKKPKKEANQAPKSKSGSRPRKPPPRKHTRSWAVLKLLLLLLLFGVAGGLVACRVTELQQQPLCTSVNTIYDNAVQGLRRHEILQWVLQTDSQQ
# [8] = biological target: T8, HeLa cell extract proteins (Homo sapiens, UniProt Q9H773)
# T8 construct: endogenous in cells; host or cells: HeLa cell extract
# T8 sequence (Q9H773 1-170): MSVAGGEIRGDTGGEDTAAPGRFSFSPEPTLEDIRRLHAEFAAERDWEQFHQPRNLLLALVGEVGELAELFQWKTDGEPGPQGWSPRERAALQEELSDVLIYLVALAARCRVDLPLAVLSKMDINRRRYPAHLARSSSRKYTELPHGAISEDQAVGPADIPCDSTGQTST
# [9] = HeLa, protein XTP3TPA (XTP3-TRAN[…] A PROTEIN)
# T3 sequence (P11413 whole entry): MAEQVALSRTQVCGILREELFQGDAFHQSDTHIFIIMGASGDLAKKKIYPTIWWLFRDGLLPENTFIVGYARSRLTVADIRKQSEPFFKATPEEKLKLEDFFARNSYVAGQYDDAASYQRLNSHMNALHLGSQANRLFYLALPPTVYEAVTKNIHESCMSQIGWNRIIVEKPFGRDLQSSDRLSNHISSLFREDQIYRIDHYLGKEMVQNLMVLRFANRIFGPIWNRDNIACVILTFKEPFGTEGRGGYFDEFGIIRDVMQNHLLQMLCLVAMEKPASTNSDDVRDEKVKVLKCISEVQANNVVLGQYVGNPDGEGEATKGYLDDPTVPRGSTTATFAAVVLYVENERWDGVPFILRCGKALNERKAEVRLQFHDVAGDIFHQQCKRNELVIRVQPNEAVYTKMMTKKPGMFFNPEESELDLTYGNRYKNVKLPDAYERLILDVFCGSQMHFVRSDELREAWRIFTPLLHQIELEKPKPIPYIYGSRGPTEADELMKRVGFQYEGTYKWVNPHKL
structure (smiles),measurement,setting,value
Nc1nc2cccc(-c3ccccc3)c2n1Cc1ccc(Cl)c(Cl)c1 [compound 3],fold changes relative to vehicle control,"[1]; HeLa, protein CSTB",1.17
same,fold changes relative to vehicle control,"[2]; captured protein PCCB, HeLa",1
same,fold changes relative to vehicle control,"[3]; protein G6PD, HeLa",1.03
same,fold changes relative to vehicle control,"[4]; HeLa, protein SHMT2",0.92
same,fold changes relative to vehicle control,"[5]; protein MDH2, HeLa",0.92
same,fold changes relative to vehicle control,"[6]; HeLa, protein SSBP1",1
same,fold changes relative to vehicle control,"[7]; protein LRRC59, HeLa",0.98
same,fold changes relative to vehicle control,"[8]; captured protein XTP3TPA, HeLa",1.14
"Nc1nc2[nH]cc(CCc3ccc(C(=O)N[C@@H](CCC(=O)O)C(=O)O)cc3)c2c(=O)[nH]1 [PTX, pemetrexed]",fold changes relative to vehicle control,[1],1.26
same,fold changes relative to vehicle control,[2],0.22
same,fold changes relative to vehicle control,[3],1.21
same,fold changes relative to vehicle control,[4],1.13
same,fold changes relative to vehicle control,[5],1.11
same,fold changes relative to vehicle control,[6],1
same,fold changes relative to vehicle control,[7],0.83
same,fold changes relative to vehicle control,[8],1.09
"Nc1nc2c(c(=O)[nH]1)N(C=O)C(CNc1ccc(C(=O)N[C@@H](CCC(=O)O)C(=O)O)cc1)CN2 (some centres unmarked) [LEU, leucovorin]",fold changes relative to vehicle control,"[1]; HeLa, protein CSTB",1.07
same,fold changes relative to vehicle control,"[2]; HeLa, protein PCCB",0.97
same,fold changes relative to vehicle control,"[3]; HeLa, protein G6PD",1.12
same,fold changes relative to vehicle control,"[4]; HeLa, protein SHMT2",1.01
same,fold changes relative to vehicle control,"[5]; HeLa, protein MDH2",1.06
same,fold changes relative to vehicle control,"[6]; HeLa, protein SSBP1",1.07
same,fold changes relative to vehicle control,"[7]; HeLa, protein LRRC59",0.83
same,fold changes relative to vehicle control,[8]; [9],1.14
CCCCCCOc1cccc(Cc2cnc(N)nc2N)c1 [compound 2],fold changes relative to vehicle control,"[1]; HeLa, protein CSTB",0.99
same,fold changes relative to vehicle control,"[2]; captured protein PCCB, HeLa",0.92
same,fold changes relative to vehicle control,"[3]; protein G6PD, HeLa",1.89
same,fold changes relative to vehicle control,"[4]; HeLa, protein SHMT2",1.53
same,fold changes relative to vehicle control,"[5]; protein MDH2, HeLa",1.97
same,fold changes relative to vehicle control,"[6]; HeLa, protein SSBP1",0.95
same,fold changes relative to vehicle control,"[7]; protein LRRC59, HeLa",1.54
same,fold changes relative to vehicle control,"[8]; captured protein XTP3TPA, HeLa",0.73
NCCOCCOCC(=O)Nc1nc2ncc(CNc3ccc(C(=O)NC(CCC(=O)O)C(=O)O)cc3)nc2c(=O)[nH]1 (centres unmarked) [compound 6],fold changes relative to vehicle control,"[1]; HeLa, protein CSTB",1.29
same,fold changes relative to vehicle control,"[2]; HeLa, protein PCCB",0.91
same,fold changes relative to vehicle control,"[3]; HeLa, protein G6PD",1.32
same,fold changes relative to vehicle control,"[4]; HeLa, protein SHMT2",1.3
same,fold changes relative to vehicle control,"[5]; HeLa, protein MDH2",1.34
same,fold changes relative to vehicle control,"[6]; HeLa, protein SSBP1",0.96
same,fold changes relative to vehicle control,"[7]; HeLa, protein LRRC59",1.13
same,fold changes relative to vehicle control,"[8]; HeLa, protein XTP3TPA (XTP3-TRANSACTIVATED GENE A PROTEIN)",0.51
CCCCCCOc1ccc(Cc2cnc(N)nc2N)cc1 [compound 1],fold changes relative to vehicle control,"[1]; HeLa, protein CSTB",1.08
same,fold changes relative to vehicle control,"[2]; captured protein PCCB, HeLa",0.99
same,fold changes relative to vehicle control,"[3]; protein G6PD, HeLa",1.15
same,fold changes relative to vehicle control,"[4]; HeLa, protein SHMT2",0.8
same,fold changes relative to vehicle control,"[5]; protein MDH2, HeLa",1.26
same,fold changes relative to vehicle control,"[6]; HeLa, protein SSBP1",1.05
same,fold changes relative to vehicle control,"[7]; protein LRRC59, HeLa",1.14
same,fold changes relative to vehicle control,"[8]; captured protein XTP3TPA, HeLa",0.91
NCCCNc1ccc(C(=O)NC(CCC(=O)O)C(=O)O)cc1 (centres unmarked) [compound 7],fold changes relative to vehicle control,"[1]; HeLa, protein CSTB",1.24
same,fold changes relative to vehicle control,"[2]; HeLa, protein PCCB",1.17
same,fold changes relative to vehicle control,"[3]; HeLa, protein G6PD",1.09
same,fold changes relative to vehicle control,"[4]; HeLa, protein SHMT2",1.02
same,fold changes relative to vehicle control,"[5]; HeLa, protein MDH2",0.96
same,fold changes relative to vehicle control,"[6]; HeLa, protein SSBP1",0.95
same,fold changes relative to vehicle control,"[7]; HeLa, protein LRRC59",0.87
same,fold changes relative to vehicle control,[8]; [9],1.21
